Test results taken from patent publication US9452169B2, “Substituted diketopiperazines and their use as oxytocin antagonists” (Glaxo Group Limited, priority 2003, dated 2016).

System: rats
Details: rat, in vivo, 30 mg/kg

CC[C@H](C)[C@@H]1C(=O)N[C@H](C2Cc3ccccc3C2)C(=O)N1[C@@H](C(=O)N1CCOCC1)c1coc(C)n1 [Example 1, (3R,6R)-3-(2,3-dihydro-1H-inden-2-yl)-1-[(1R)-1-(2-methyl-1,3-oxazol-4-yl)-2-(4-morpholinyl)-2-oxoethyl]-6-[(1S)-1-methylpropyl]-2,5-piperazinedione]
adverse toxicological effects: no adverse toxicological effects were observed
